Laboratory results as given in ChEMBL document CHEMBL5500345, “Discovery of a novel homoisoflavonoid derivative 5g for anti-osteoclastic bone loss via targeting FGFR1” (Eur J Med Chem, 2024).
Activity calls are given as the source filed them. No cut-off for these calls is given here.

Assays:
BMDM [1] = test: Anti-osteoclastogenic activity in C57/BL6 mouse BMDM cells assessed as inhibition of RANKL-induced osteoclast differentiation at 5 uM incubated for 4 days in presence of M-CSF by TRAP staining based microscopic analysis relative to control; type: functional; conditions: 96 h, time 4 day
BMDM [2] = test: Anti-osteoclastogenic activity in C57/BL6 mouse BMDM cells assessed as inhibition of RANKL-induced osteoclast differentiation at 10 uM incubated for 4 days in presence of M-CSF by TRAP staining based microscopic analysis relative to control; type: functional; conditions: 96 h, time 4 day
Mus musculus [3] = test: Anti-osteoporosis activity in OVX-induced osteoporosis C57BL/6 mouse model assessed as increase in bone volume in femur at 15 mg/kg,po administrated twice daily for 4 weeks by micro-CT scanning analysis; type: functional, organism-based
BMDM [4] = test: Anti-osteoclastogenic activity in M-CSF/RANKL-induced C57/BL6 mouse BMDM cells assessed as downregulation of ERK1 expression at 10 uM incubated upto 3 days by immunoblotting analysis; type: functional, cell-based; conditions: time <= 3.0 day
[5] = Toxicity in OVX-induced osteoporosis C57BL/6 mouse model assessed as change in body weight at 30 mg/kg,po administrated twice daily for 4 weeks; type: organism-based; conditions: in vivo, 672 h
Mus musculus [6] = test: Anti-osteoporosis activity in OVX-induced osteoporosis C57BL/6 mouse model assessed as prevention of bone loss in femur at 15 mg/kg,po administrated twice daily for 4 weeks by micro-CT scanning analysis; type: functional, organism-based
Pre-Osteoblast [7] = test: Induction of osteogenesis in mouse Pre-Osteoblast cells assessed as effect on RUNX2 mRNA expression by qRT-PCR analysis; type: functional, cell-based
BMDM [8] = test: Anti-osteoclastogenic activity in M-CSF/RANKL-induced C57/BL6 mouse BMDM cells assessed as downregulation of CTSK protein expression at 10 uM incubated upto 3 days by Western blotting analysis; type: functional, cell-based; conditions: time <= 3.0 day
[9] = Cytotoxicity against BMP2-induced mouse Pre-Osteoblast cells at < 20 uM incubated for 48 hrs by EZ-Cytox cell viability assay; type: toxicity, cell-based
BMDM [10] = test: Anti-osteoclastogenic activity in C57/BL6 mouse BMDM cells assessed as inhibition of RANKL-induced F-actin belt formation incubated for 6 days by F-actin ring assay; type: functional, cell-based; conditions: time 6.0 day
Mus musculus [11] = test: Anti-osteoporosis activity in OVX-induced osteoporosis C57BL/6 mouse model assessed as prevention of bone loss in femur at 30 mg/kg,po administrated twice daily for 4 weeks by micro-CT scanning analysis; type: functional, organism-based
Mus musculus [12] = test: Anti-osteoporosis activity in OVX-induced osteoporosis C57BL/6 mouse model assessed as increase in bone volume in femur at 30 mg/kg,po administrated twice daily for 4 weeks by micro-CT scanning analysis; type: functional, organism-based
BMDM [13] = test: Anti-osteoclastogenic activity in M-CSF/RANKL-induced C57/BL6 mouse BMDM cells assessed as downregulation of NF-kappaB expression at 10 uM incubated upto 3 days by immunoblotting analysis; type: functional, cell-based; conditions: time <= 3.0 day
Pre-Osteoblast [14] = test: Induction of osteogenesis in mouse Pre-Osteoblast cells assessed as increase in ALP expression at < 20 uM incubated for 9 days by BCIP/NBT staining based analysis; type: functional, cell-based; conditions: time 9.0 day
BMDM [15] = test: Anti-osteoclastogenic activity in M-CSF/RANKL-induced C57/BL6 mouse BMDM cells assessed as downregulation of FGFR1 expression at 10 uM incubated upto 3 days by immunoblotting analysis; type: functional, cell-based; conditions: time <= 3.0 day
BMDM [16] = test: Anti-osteoclastogenic activity in C57/BL6 mouse BMDM cells assessed as inhibition of RANKL-induced osteoclast formation at 10 uM incubated for 4 days in presence of M-CSF by TRAP staining based microscopic analysis; type: functional, cell-based; conditions: time 4.0 day
BMDM [17] = test: Anti-osteoclastogenic activity in M-CSF/RANKL-induced C57/BL6 mouse BMDM cells assessed as downregulation of Dc-stamp mRNA expression at 10 uM incubated upto 3 days by qRT-PCR analysis; type: functional, cell-based; conditions: time <= 3.0 day
BMDM [18] = test: Anti-osteoclastogenic activity in M-CSF/RANKL-induced C57/BL6 mouse BMDM cells assessed as downregulation of NFATc1 mRNA expression at 10 uM incubated upto 3 days by qRT-PCR analysis; type: functional, cell-based; conditions: time <= 3.0 day
Pre-Osteoblast [19] = test: Induction of osteogenesis in mouse Pre-Osteoblast cells assessed as effect on ALP mRNA expression by qRT-PCR analysis; type: functional, cell-based
Pre-Osteoblast [20] = test: Induction of osteogenesis in mouse Pre-Osteoblast cells assessed as effect on OSX mRNA expression by qRT-PCR analysis; type: functional, cell-based
BMDM [21] = test: Anti-osteoclastogenic activity in M-CSF/RANKL-induced C57/BL6 mouse BMDM cells assessed as downregulation of ATP6V0D2 mRNA expression at 10 uM incubated upto 3 days by qRT-PCR analysis; type: functional, cell-based; conditions: time <= 3.0 day
BMDM [22] = test: Anti-osteoclastogenic activity in M-CSF/RANKL-induced C57/BL6 mouse BMDM cells assessed as downregulation of IkappaBalpha expression at 10 uM incubated upto 3 days by immunoblotting analysis; type: functional, cell-based; conditions: time <= 3.0 day
Mus musculus [23] = test: Anti-osteoporosis activity in OVX-induced osteoporosis C57BL/6 mouse model assessed as increase in bone mineral density in femur at 15 mg/kg,po administrated twice daily for 4 weeks by micro-CT scanning analysis; type: functional, organism-based
BMDM [24] = test: Anti-osteoclastogenic activity in M-CSF/RANKL-induced C57/BL6 mouse BMDM cells assessed as downregulation of CTSK mRNA expression at 10 uM incubated upto 3 days by qRT-PCR analysis; type: functional, cell-based; conditions: time <= 3.0 day
BMDM [25] = test: Anti-osteoclastogenic activity in M-CSF/RANKL-induced C57/BL6 mouse BMDM cells assessed as downregulation of ERK2 expression at 10 uM incubated upto 3 days by immunoblotting analysis; type: functional, cell-based; conditions: time <= 3.0 day
BMDM [26] = test: Anti-osteoclastogenic activity in M-CSF/RANKL-induced C57/BL6 mouse BMDM cells assessed as downregulation of ACP5 mRNA expression at 10 uM incubated upto 3 days by qRT-PCR analysis; type: functional, cell-based; conditions: time <= 3.0 day
BMDM [27] = test: Anti-osteoclastogenic activity in M-CSF/RANKL-induced C57/BL6 mouse BMDM cells assessed as downregulation of c-FOS mRNA expression at 10 uM incubated upto 3 days by qRT-PCR analysis; type: functional, cell-based; conditions: time <= 3.0 day
BMDM [28] = test: Cytotoxicity against C57/BL6 mouse BMDM cells at < 20 uM incubated for 48 hrs by EZ-Cytox cell viability assay; type: toxicity, cell-based
Mus musculus [29] = test: Anti-osteoporosis activity in OVX-induced osteoporosis C57BL/6 mouse model assessed as increase in bone mineral density in femur at 30 mg/kg,po administrated twice daily for 4 weeks by micro-CT scanning analysis; type: functional, organism-based
BMDM [30] = test: Anti-osteoclastogenic activity in C57/BL6 mouse BMDM cells assessed as inhibition of RANKL-induced bone resorption number incubated for 6 days by fluorescein amine-labeled calcium phosphate based fluorescence spectramax analysis; type: functional, cell-based; conditions: time 6.0 day
BMDM [31] = test: Anti-osteoclastogenic activity in C57/BL6 mouse BMDM cells assessed as inhibition of RANKL-induced bone resorption pit incubated for 6 days by fluorescein amine-labeled calcium phosphate based fluorescence spectramax analysis; type: functional, cell-based; conditions: time 6.0 day
BMDM [32] = test: Anti-osteoclastogenic activity in M-CSF/RANKL-induced C57/BL6 mouse BMDM cells assessed as downregulation of MMP9 mRNA expression at 10 uM incubated upto 3 days by qRT-PCR analysis; type: functional, cell-based; conditions: time <= 3.0 day
BMDM [33] = test: Anti-osteoclastogenic activity in C57/BL6 mouse BMDM cells assessed as inhibition of RANKL-induced osteoclast differentiation by measuring number of TRAP-positive cells incubated for 4 days in presence of M-CSF by TRAP staining based microscopic analysis; type: functional, cell-based; conditions: 96 h

O=c1c(Cc2cc(Br)ccc2O)c(-c2ccccc2)oc2ccccc12
inhibition at 5 µM (BMDM [1]): 22.7% | inhibition at 10 µM (BMDM [2]): 54.5%

COc1ccc(-c2oc3ccccc3c(=O)c2Cc2ccccc2O)cc1
Activity (Mus musculus [3]): Active | Activity (BMDM [4]): Active | Activity [5]: Non-Toxic | Activity (Mus musculus [6]): Active | Activity (Pre-Osteoblast [7]): inactive | Activity (BMDM [8]): Active | Activity [9]: Non-Toxic | Activity (BMDM [10]): Dose-Dependent Effect | Activity (Mus musculus [11]): Active | Activity (Mus musculus [12]): Active | Activity (BMDM [13]): Active | Activity (Pre-Osteoblast [14]): inactive | Activity (BMDM [15]): Active | Activity (BMDM [16]): Active | Activity (BMDM [17]): Active | Activity (BMDM [18]): Active | Activity (Pre-Osteoblast [19]): inactive | Activity (Pre-Osteoblast [20]): inactive | Activity (BMDM [21]): Active | Activity (BMDM [22]): Active | Activity (Mus musculus [23]): Active | Activity (BMDM [24]): Active | Activity (BMDM [25]): Active | Activity (BMDM [26]): Active | Activity (BMDM [27]): Active | Activity (BMDM [28]): Non-Toxic | Activity (Mus musculus [29]): Active | Activity (BMDM [30]): Dose-Dependent Effect | Activity (BMDM [31]): Dose-Dependent Effect | inhibition at 5 µM (BMDM [1]): 56.4% | inhibition at 10 µM (BMDM [2]): 79% | Activity (BMDM [32]): Active | IC50 (BMDM [33]): 2390 nM

Cc1ccc(-c2oc3ccccc3c(=O)c2Cc2ccccc2O)cc1
inhibition at 5 µM (BMDM [1]): 34.4% | inhibition at 10 µM (BMDM [2]): 37.8%

O=c1cc(-c2ccccc2)oc2ccccc12 [FLAVONE]
inhibition at 5 µM (BMDM [1]): 7.11% | inhibition at 10 µM (BMDM [2]): 35.4%

O=c1c(Cc2cc(F)ccc2O)c(-c2ccccc2)oc2ccc(F)cc12
inhibition at 5 µM (BMDM [1]): 40% | inhibition at 10 µM (BMDM [2]): 37.6%

CCCCOc1ccccc1Cc1c(-c2ccccc2)oc2ccccc2c1=O
inhibition at 5 µM (BMDM [1]): 19% | inhibition at 10 µM (BMDM [2]): 44.7%

COc1ccc(O)c(Cc2c(-c3ccccc3)oc3ccc(OC)cc3c2=O)c1
inhibition at 5 µM (BMDM [1]): 17.6% | inhibition at 10 µM (BMDM [2]): 16.8%

Cc1ccc(O)c(Cc2c(-c3ccccc3)oc3ccccc3c2=O)c1
inhibition at 5 µM (BMDM [1]): 21.5% | inhibition at 10 µM (BMDM [2]): 32.5%

O=c1c(Cc2ccccc2O)c(-c2ccc(-c3ccccc3)cc2)oc2ccccc12
inhibition at 5 µM (BMDM [1]): 37.9% | inhibition at 10 µM (BMDM [2]): 69.3%

CS(=O)(=O)c1ccc(Oc2ccccc2Cc2c(-c3ccccc3)oc3ccccc3c2=O)cc1
inhibition at 5 µM (BMDM [1]): 23.2% | inhibition at 10 µM (BMDM [2]): 51.8%

O=c1c(Cc2ccccc2O)c(-c2ccccc2)oc2ccccc12
inhibition at 5 µM (BMDM [1]): 31.5% | inhibition at 10 µM (BMDM [2]): 60.4%

CC(C)(C)c1ccc(Oc2ccccc2Cc2c(-c3ccccc3)oc3ccccc3c2=O)cc1
inhibition at 5 µM (BMDM [1]): 11.1% | inhibition at 10 µM (BMDM [2]): 12%

O=c1c(Cc2ccccc2Oc2ccc(O)cc2)c(-c2ccccc2)oc2ccccc12
inhibition at 5 µM (BMDM [1]): 29.4% | inhibition at 10 µM (BMDM [2]): 55.3%

Cc1ccc(S(=O)(=O)Oc2ccccc2Cc2c(-c3ccccc3)oc3ccccc3c2=O)cc1
inhibition at 5 µM (BMDM [1]): 28.9% | inhibition at 10 µM (BMDM [2]): 68.1%

O=c1c(Cc2cccc(F)c2)c(-c2ccccc2)oc2ccccc12
inhibition at 5 µM (BMDM [1]): 22% | inhibition at 10 µM (BMDM [2]): 36.3%

O=c1c(Cc2ccccc2)c(-c2ccccc2)oc2ccccc12
inhibition at 5 µM (BMDM [1]): 22.6% | inhibition at 10 µM (BMDM [2]): 30.6%

CCOc1cccc(Cc2c(-c3ccccc3)oc3ccccc3c2=O)c1O
inhibition at 5 µM (BMDM [1]): 1.08% | inhibition at 10 µM (BMDM [2]): 25%

O=c1c(Cc2ccccc2O)c(-c2ccc(Cl)cc2)oc2ccccc12
inhibition at 5 µM (BMDM [1]): 33% | inhibition at 10 µM (BMDM [2]): 36.7%

O=c1c(Cc2cc(Br)ccc2O)c(-c2ccccc2)oc2ccc(Br)cc12
inhibition at 5 µM (BMDM [1]): -8.26% | inhibition at 10 µM (BMDM [2]): -4.4%

O=c1c(Cc2cc(-c3ccccc3)ccc2O)c(-c2ccccc2)oc2ccccc12
inhibition at 5 µM (BMDM [1]): 25.6% | inhibition at 10 µM (BMDM [2]): 23.7%

O=c1c(Cc2cc(Cl)cc(Cl)c2O)c(-c2ccccc2)oc2ccccc12
inhibition at 5 µM (BMDM [1]): 2.94% | inhibition at 10 µM (BMDM [2]): 14.7%

O=c1c(Cc2ccccc2O)coc2ccccc12
inhibition at 5 µM (BMDM [1]): 12.8% | inhibition at 10 µM (BMDM [2]): 46.7%

COc1ccc(O)c(Cc2c(-c3ccccc3)oc3ccccc3c2=O)c1
inhibition at 5 µM (BMDM [1]): 36.5% | inhibition at 10 µM (BMDM [2]): 38.2%

COc1cc(Oc2ccccc2Cc2c(-c3ccccc3)oc3ccccc3c2=O)cc(OC)c1OC
inhibition at 5 µM (BMDM [1]): 22.7% | inhibition at 10 µM (BMDM [2]): 40.3%

Cc1ccc(-c2oc3ccc(C)cc3c(=O)c2Cc2cc(C)ccc2O)cc1
inhibition at 5 µM (BMDM [1]): 22.3% | inhibition at 10 µM (BMDM [2]): 23.8%
